Reference: article PMC10685318, “Trans-cyclosulfamidate mannose-configured cyclitol allows isoform-dependent inhibition of GH47 α-D-mannosidases through a bump–hole strategy” (Chemical Science, 2023)

What was measured:
[1] = biological target: T1, CkGH47 L310S (Caulobacter sp. K31, UniProt B0SWV2, L310S); test: Isothermal titration calorimetry; type: binding, Caulobacter K31 strain
T1 sequence (B0SWV2 25-462 L310S): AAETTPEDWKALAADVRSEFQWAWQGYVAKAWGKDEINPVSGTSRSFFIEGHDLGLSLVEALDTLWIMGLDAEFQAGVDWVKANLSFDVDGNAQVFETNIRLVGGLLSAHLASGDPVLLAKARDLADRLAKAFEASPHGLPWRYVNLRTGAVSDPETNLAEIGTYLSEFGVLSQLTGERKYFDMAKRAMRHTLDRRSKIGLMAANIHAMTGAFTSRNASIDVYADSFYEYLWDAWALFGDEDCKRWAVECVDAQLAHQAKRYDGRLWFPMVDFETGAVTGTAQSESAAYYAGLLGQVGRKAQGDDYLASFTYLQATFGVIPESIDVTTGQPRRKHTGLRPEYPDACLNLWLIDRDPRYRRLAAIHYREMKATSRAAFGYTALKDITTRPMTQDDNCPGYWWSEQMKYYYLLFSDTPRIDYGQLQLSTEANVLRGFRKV
From the text: (§1) Trans-Cyclosulfamidate Cyclitols Males et al.
Figure S6. Isothermal titration calorimetry binding thermodynamics between CkGH47 L310S and 6. A. raw data injection profile;
B. Titration curve. N = 1.01 ± 0.02 sites, ΔH = -7.39 ± 0.19 kcal mol-1.
Figure S7. Overlay of the human GH47 α-1,2-mannosidase structures highlighting the conserved active site. Crystal structure of ERManI is in orange (PDB ID: 1FMI); the remaining structures were predicted by Alphafold[5], in light blue is GMIB, in dark blue is GMIA, in purple is GMIC, in yellow is EDEM2, in red is EDEM3 and in pink is EDEM1. A. The crystal structure from this work of CkGH47 and 3 is in green. Residues annotated according to the numbering of CkGH47. B. The human GH47 enzymes are superposed minus the CkGH47 enzyme; the residues are annotated according to the numbering of HsERManI. […]
(§2) 2.1 Biochemical and biological methods
(§3) To obtain Michaelis-Menten kinetics
(§4) Lastly, to achieve an inhibition constant, the
(§5) The gradient of the graph, V0/Vi
(§6) After taking each time point, the sample was heat denatured at 95 °C for 5 minutes. The reactions were conducted in triplicate and averaged. […]
(§7) microplate spectrophotometer (BioTek). The mannose detection kit (Megazyme) was used to detect […]
(§8) dehydrogenase, was monitored at 340 nm. The absorbance after hexokinase was added to the mixture […]
2.1.2 Isothermal titration calorimetry
MicroCal ITC200 calorimeter at 25 °C over 20 injections. The experiment was duplicated to obtain a […]
the MicroCal PEAK-ITC analysis software.
2.2 Crystallographic data collection and refinement of CkGH47
3′ and the reverse primer was 5′-[…]-3′. Protein production and purification was followed as described previously.[3]
Reference data in the form of a
Refinement of the model was conducted […]
conformation was conducted using […]. Details of the data collection and refinement statistics […]
Figures of the structure were produced by using CCP4mg.

[2] = biological target: T1, CkGH47 L310S; test: Inhibition constant (V0/Vi vs inhibitor, mannose detection kit) with the CkGH47 L310S mutant; type: biochemical, Caulobacter K31 strain
Description: Building on this kinetic assay, we obtained an inhibition constant by pre-incubation of the enzyme and 6 for 30 minutes and then following the same time-point procedure as for the Michaelis–Menten assay. […] Similarly, a dissociation constant of 970 nM was obtained using isothermal titration calorimetry (Fig. S6 ^†). To understand the interactions between 6 and CkGH47 L310S regarding the introduced hole, a crystal structure complex was obtained (statistics in Table S2 ^†). Trans-cyclic sulfamidate 6 binds similarly to other conformationally restricted GH47 inhibitors, with additional interactions between the sulfamidate and active site residues, for example, the nitrogen and oxygen, and D249 and R363 side chains. Additionally, the introduced serine residue is indeed now in a position to hydrogen bond to the oxygen of the sulfamidate with a distance of 3.1 Å.
as §1, §2, §3, §4, §5, §6, §7, §8

[3] = isothermal titration calorimetry

Work on `O=S1(=O)N[C@@H]2[C@@H](O)[C@@H](O)[C@H](O)[C@@H](CO)[C@H]2O1` [compound 6, 1,6-trans-manno-cyclosulfamidate] yielded a Kd [1] of 970 nM, an N [1, 3] of 1.01 ± 0.02 sites and a ΔH [1, 3] of -7.39 ± 0.19 kcal/mol. The Ki [2] was 574 nM.
